Earlier results in patent publication US20090180950A1, “Polychromatic, diversely-sized particles for angiography” (The Trustees of Columbia University in the City of New York, priority 2006, published 2009).

Tested on: plasma protein
Conditions: fluorescein

bound to plasma protein (fraction bound): 70-80% | unbound (free) fraction (fraction not bound to plasma protein): 20-30%
Structure (SMILES): O=C1OC2(c3ccc(O)cc3Oc3cc(O)ccc32)c2ccccc21 [fluorescein, Sodium fluorescein]
